The record followed here is ChEMBL document CHEMBL1125278, “Novel cerebroprotective agents with central nervous system stimulating activity. 2. Synthesis and pharmacology of the 1-(acylamino)-7-hydroxyindan derivatives” (1991).

Experiment [1] relates to Mus musculus. Briefly: Antihypoxic effect by the ratio of survival time (SVT) of test mice to that of control group at a dose of 30 mg/kg administered subcutaneously. Particulars: route subcutaneous. Format: functional.
The subject of experiment [2] is Mus musculus. Put plainly: Time of recovery of righting reflux (RRT) in seconds was measured after oral administration of 30 mg/kg in mice for the promotional effect on recovery from coma. Format: functional.
For experiment [3], the system named is Mus musculus. Put plainly: Antihypoxic effect tested by the ratio of survival time (SVT) of test mice to that of control group, dosed orally 30 mg/kg. The class given is functional. Particulars: route oral.
The test system of experiment [4] is Mus musculus. Briefly: Spontaneous movement (SMT) in seconds, was measured after oral administration of 30 mg/kg in mice to test for promoting effects on recovery from coma. The class given is functional.
Experiment [5] concerns Mus musculus. Put plainly: Time of recovery of righting reflux (RRT) in seconds was measured after oral administration of 30 mg/kg orally in mice for the promotional effect on recovery from coma. Format: functional.
The subject of experiment [6] is Mus musculus. Briefly: Time of recovery of righting reflux (RRT) in seconds was measured after oral administration of 10 mg/kg orally in mice for the promotional effect on recovery from coma. Format: functional.
In experiment [7] the test system is Mus musculus. Put plainly: Antihypoxic effect by the survival time (SVT) in mice at a dose of 3 mg/kg administered intraperitoneally. Particulars: route intraperitoneal. The class given is functional.
For experiment [8], the system named is Mus musculus. Put plainly: Time of recovery of spontaneous movement (SMT) in seconds was measured after administration of 100 mg/kg orally in mice for the promotional effect on recovery from coma. Format: functional.
The subject of experiment [9] is Mus musculus. Put plainly: Compound was tested for the anesthetic effect and the sleeping time (ST) was recorded at a dose of 10 mg/kg administered intraperitoneally. The class given is functional. Particulars: route intraperitoneal.
Experiment [10] deals with Mus musculus. Put plainly: Compound was tested for the anesthetic effect and the sleeping time (ST) was recorded at a dose of 30 mg/kg administered intraperitoneally. Format: functional. Conditions: route intraperitoneal.
Experiment [11] deals with Mus musculus. Put plainly: Antihypoxic effect tested by the ratio of survival time (SVT) of test mice to that of control group, dosed intraperitoneally at 30 mg/kg. The class given is functional. Conditions: route intraperitoneal.
Experiment [12] deals with Mus musculus. Put plainly: Time of recovery of righting reflux (RRT) in seconds was measured after oral administration of 100 mg/kg orally in mice for the promotional effect on recovery from coma. Format: functional.
Experiment [13] has as its system Mus musculus. Put plainly: Antihypoxic effect by the ratio of survival time (SVT) of test mice to that of control group at a dose of 10 mg/kg administered intraperitoneally. Format: functional. Particulars: route intraperitoneal.
Experiment [14] relates to Mus musculus. Put plainly: Compound was tested for the anesthetic effect and the sleeping time (ST) was recorded at a dose of 3 mg/kg administered intraperitoneally. The class given is functional. Particulars: route intraperitoneal.
Experiment [15] relates to Mus musculus. Put plainly: Time of recovery of spontaneous movement (SMT) in seconds was measured after administration of 10 mg/kg orally in mice for the promotional effect on recovery from coma. Format: functional. Particulars: route oral.
The test system of experiment [16] is Mus musculus. Put plainly: Antihypoxic effect by the survival time (SVT) in mice at a dose of 30 mg/kg administered intraperitoneally. The class given is functional. Conditions: route intraperitoneal.
Experiment [17] concerns Mus musculus. Put plainly: Antihypoxic effect by the ratio of survival time (SVT) of test mice to that of control group at a dose of 100 mg/kg administered intraperitoneally. Format: functional.
The subject of experiment [18] is Mus musculus. Put plainly: Antihypoxic effect by the ratio of survival time (SVT) of test mice to that of control group at a dose of 100 mg/kg administered orally. Also on record: dose 100 mg/kg. The class given is functional, organism-based.
The test system of experiment [19] is Mus musculus. Put plainly: Time of recovery of righting reflux (RRT) in seconds was measured after administration of 100 mg/kg orally in mice for the promotional effect on recovery from coma. The class given is functional.
In experiment [20] the test system is Mus musculus. Put plainly: Time of recovery of righting reflux (RRT) in seconds was measured after intraperitoneal administration of 100 mg/kg in mice for the promotional effect on recovery from coma. Format: functional.
Experiment [21] relates to Mus musculus. Briefly: Antihypoxic effect by the survival time (SVT) in mice at a dose of 100 mg/kg administered orally. Format: functional.
Experiment [22] relates to Mus musculus. Briefly: Time of recovery of righting reflux (RRT) in seconds was measured after intraperitoneal administration of 30 mg/kg in mice for the promotional effect on recovery from coma. The class given is functional.
Experiment [23] relates to Mus musculus. Put plainly: Antihypoxic effect by the survival time (SVT) in mice at a dose of 100 mg/kg administered intraperitoneally. The class given is functional. Particulars: route intraperitoneal.
Experiment [24] has as its system Mus musculus. Briefly: Time of recovery of righting reflux (RRT) in seconds was measured after intraperitoneal administration of 10 mg/kg in mice for the promotional effect on recovery from coma. The class given is functional.
For experiment [25], the system named is Mus musculus. Put plainly: Antihypoxic effect by the survival time (SVT) in mice at a dose of 10 mg/kg administered intraperitoneally. Particulars: route intraperitoneal. Format: functional.
Experiment [26] relates to Mus musculus. Briefly: Time of recovery of spontaneous movement (SMT) in seconds was measured after intraperitoneal administration of 30 mg/kg in mice for the promotional effect on recovery from coma. Format: functional.
The subject of experiment [27] is Mus musculus. Put plainly: Time of recovery of spontaneous movement (SMT) in seconds was measured after administration of 1 mg/kg orally in mice for the promotional effect on recovery from coma. The class given is functional. Particulars: route oral.
Experiment [28] deals with Mus musculus. Briefly: Compound was tested for the anesthetic effect and the sleeping time (ST) was recorded at a dose of 3 mg/kg administered subcutaneously. The class given is functional. Particulars: route subcutaneous.
Experiment [29] has as its system Mus musculus. Put plainly: Time of recovery of righting reflux (RRT) in seconds was measured after oral administration of 10 mg/kg in mice for the promotional effect on recovery from coma. The class given is functional.
The test system of experiment [30] is Mus musculus. Put plainly: Time of recovery of spontaneous movement (SMT) in seconds was measured after administration of 3 mg/kg orally in mice for the promotional effect on recovery from coma. Format: functional. Conditions: route oral.
Experiment [31] concerns Mus musculus. Put plainly: Time of recovery of righting reflux (RRT) in seconds was measured after oral administration of 1 mg/kg in mice for the promotional effect on recovery from coma. The class given is functional.
Experiment [32] relates to Mus musculus. Briefly: Time of recovery of righting reflux (RRT) in seconds was measured after oral administration of 3 mg/kg in mice for the promotional effect on recovery from coma. Format: functional.

“And” between values parts separate entries of the source, which are not always exact repeats. Equal entries are not always repeated.

In the case of `CCC(C)c1cc(C)c2c(c1O)C(N)CC2` (configuration not stated), the SVT in the experiment on Mus musculus [1] is 276.5%; in the experiment on Mus musculus [3] it was 166.5%. In the experiment on Mus musculus [2], this molecule registered an RRT of 44.2 s. Further, the SMT in the experiment on Mus musculus [4] was 48.9 s.

In the case of `Cc1cc(C)c2c(c1O)C(NC(=O)CN1CCN(C)CC1)C(C)(C)C2` (configuration not stated), the RRT came out at 45.7 s in the experiment with Mus musculus [5], 61.2 s with Mus musculus [6], 54.9 s with Mus musculus [2] and 25.8 s in the experiment on Mus musculus [12]. The SVT was 93% with Mus musculus [7]; 145.6% and 145.2% in the experiment with Mus musculus [11] (30 mg/kg); 86.4% with Mus musculus [3]; 92.5% in the experiment on Mus musculus [13]. In addition, the SMT is 36.2 s with Mus musculus [8] (route oral); 43.1 s and 49.8 s in the experiment with Mus musculus [4] (30 mg/kg); 60.9 s with Mus musculus [15]. In addition, the ST in the experiment with Mus musculus [9] stood at 78.8 s; in the experiment with Mus musculus [10], 84.3 s; in the experiment on Mus musculus [14] it was 92.7 s.

`CCCCCCCCCCC(=O)NC1CCc2c(C)cc(C)c(O)c21` (configuration not stated): the SVT in the experiment with Mus musculus [16] came out at 94.5%.

On to VITAMIN E, for which the SVT in the experiment on Mus musculus [17] was 96.7%; with Mus musculus [18], 178%. In the experiment on Mus musculus [8], this molecule came in with an SMT of 83.5 s. Moreover, the RRT with Mus musculus [19] amounted to 92.2 s.

On to `Cc1cc(C(C)(C)C)c(O)c(C(C)(C)C)c1` [BUTYLATED HYDROXYTOLUENE], for which the RRT with Mus musculus [20] stood at 98.7 s; in the experiment on Mus musculus [22], 74.5 s; with Mus musculus [24] it was 96.4 s; with Mus musculus [19] (route oral) it was 69.6 s. Also, the SVT was 87.6% with Mus musculus [21]; 358.8% and 583.9% with Mus musculus [23]; 140.3% in the experiment with Mus musculus [25]; 109.4% in the experiment on Mus musculus [16]. Also, the SMT is 80.9 s in the experiment on Mus musculus [8] (route oral); 110.4 s and 114.7 s and 115.7 s with Mus musculus [26].

On to `Cc1cc(C)c2c(c1O)C(N)C(C)(C)C2` (configuration not stated), for which the SMT was 92.3 s in the experiment on Mus musculus [27], 105.8 s in the experiment with Mus musculus [30], 42 s with Mus musculus [4] and 62.5 s in the experiment on Mus musculus [15]. Further, the ST with Mus musculus [28] was 112 s and 82.1 s and 76.1 s. The RRT turned out to be 54.8 s with Mus musculus [29], 37.2 s with Mus musculus [2], 62.8 s in the experiment with Mus musculus [31] and 66.2 s in the experiment with Mus musculus [32]. The SVT with Mus musculus [1] is 298.2%; in the experiment on Mus musculus [7] it was 156.2%; with Mus musculus [11], 298.1%; with Mus musculus [3], 142.1%; in the experiment on Mus musculus [13], 217%.
